Each structure is given as a SMILES string.

Holding throughout (assay type): cell-based
In assay [1] the target is T1, GLUT4 (Homo sapiens, UniProt P14672).
T1 construct: expressed in transfected cells; host or cells: HEK293 stably expressing GLUT1 shRNA
T1 sequence (P14672 1-509): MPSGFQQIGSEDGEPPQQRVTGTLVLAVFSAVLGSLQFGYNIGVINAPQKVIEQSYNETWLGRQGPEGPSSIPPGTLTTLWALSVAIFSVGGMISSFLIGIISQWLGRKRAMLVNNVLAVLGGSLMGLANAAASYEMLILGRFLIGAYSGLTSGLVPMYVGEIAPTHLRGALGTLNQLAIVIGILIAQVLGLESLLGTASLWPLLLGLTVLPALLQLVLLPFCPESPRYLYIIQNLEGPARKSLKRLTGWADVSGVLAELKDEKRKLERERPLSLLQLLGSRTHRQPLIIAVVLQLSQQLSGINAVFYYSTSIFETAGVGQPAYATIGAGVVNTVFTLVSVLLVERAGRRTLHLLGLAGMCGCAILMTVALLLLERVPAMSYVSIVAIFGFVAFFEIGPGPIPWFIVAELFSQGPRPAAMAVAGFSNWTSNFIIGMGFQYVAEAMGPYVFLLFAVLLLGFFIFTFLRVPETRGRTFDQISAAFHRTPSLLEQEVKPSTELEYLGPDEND
Briefly: 2-DOG transport in HEK293 cells over-expressing GLUT4. Conditions: pre-treated 5 minutes, 2-DOG uptake 4 min; cells lacking GLUT1; read-out: IC50 (inhibition of 2-DOG transport in HEK cells over-expressing GLUT isoforms) GLUT4. As to the method: (§1) Tissue culture plates were pretreated with 25 μg/ml polyethyleneimine (Fluka, catalogue number P3143) in 150 mM NaCl for 20min to let cells adhere. JNN3 cells were subsequently plated and grown to 40-60% confluency in complete RPMI 1640 medium. HEK293 GLUT overexpressing cells were plated at 400,000 cells/ml overnight. Cells were then washed with glucose-free HEPES buffer twice and starved for 30 min. The uptake of 2-[^3H] deoxy-D-glucose (2-DOG) (50 μM) was measured in glucose-free HEPES buffer for 4-6 min at 37° C. Compound 20 (20 μM) was added 5-6 min prior to the addition of glucose depending on the specific assay. For the HEK293 GLUT overexpressing cells, non-specific uptake was measured in non-transfected HEK293 cells containing the shRNA GLUT1 knockdown and was subtracted from the experimental values. Data are plotted as percent uptake relative to unexposed HEK293 cultures. Data were normalized to fit by nonlinear regression analysis using GraphPad Prism software.
(§2) Compound 20 was further screened for GLUT4 selectivity by evaluating inhibition of glucose transport in HEK 293 cells exogenously over-expressing human GLUTs-1, -2, -3, -4, or -8 that also stably express GLUT1 shRNA (except the GLUT1 overexpressing cell line) to knock down endogenous GLUT1.
(§3) Glucose transport in HEK293 cells over-expressing GLUT1 or over-expressing GLUT4 or GLUT8 in cells lacking GLUT1 were used to evaluate inhibition of glucose transport. Cells were pre-treated with compound for 5 minutes followed by evaluation of […] uptake for 4 min at […]. Non-specific uptake was measured in nontransfected HEK293 cells containing the shRNA GLUT1 knockdown and was subtracted from the experimental values.

The target of assay [2] is T2, GLUT1 (Homo sapiens, UniProt P11166).
T2 construct: expressed in transfected cells; host or cells: HEK293
T2 sequence (P11166 1-492): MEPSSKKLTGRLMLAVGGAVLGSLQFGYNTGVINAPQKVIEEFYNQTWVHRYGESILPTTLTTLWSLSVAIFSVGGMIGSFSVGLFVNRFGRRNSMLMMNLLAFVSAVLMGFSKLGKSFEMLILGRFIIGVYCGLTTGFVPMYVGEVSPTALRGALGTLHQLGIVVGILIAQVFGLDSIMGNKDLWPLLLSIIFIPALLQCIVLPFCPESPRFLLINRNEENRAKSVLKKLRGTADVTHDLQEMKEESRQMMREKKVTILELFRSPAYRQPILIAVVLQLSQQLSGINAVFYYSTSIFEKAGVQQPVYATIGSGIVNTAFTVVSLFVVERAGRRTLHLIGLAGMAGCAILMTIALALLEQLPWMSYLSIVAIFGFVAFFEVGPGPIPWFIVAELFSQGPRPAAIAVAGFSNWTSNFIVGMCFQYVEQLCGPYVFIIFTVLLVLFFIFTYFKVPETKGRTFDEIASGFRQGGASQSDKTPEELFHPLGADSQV
Put plainly: 2-DOG transport in HEK293 cells over-expressing GLUT1. As to conditions: pre-treated 5 minutes, 2-DOG uptake 4 min; read-out: IC50 (inhibition of 2-DOG transport in HEK cells over-expressing GLUT isoforms) GLUT1. As to the method:
as §1, with “software. […]” for “software.”
Glucose transport in HEK293 cells over-expressing GLUT1 or over-expressing GLUT4 or GLUT8 in cells lacking GLUT1 were used to evaluate inhibition of glucose transport. […] Non-specific uptake was measured in nontransfected HEK293 cells containing the shRNA GLUT1 knockdown and was subtracted from the experimental values.

The target of assay [3] is T3, GLUT8 (Homo sapiens, UniProt Q9NY64).
T3 construct: expressed in transfected cells; host or cells: HEK293 stably expressing GLUT1 shRNA
T3 sequence (Q9NY64 1-477): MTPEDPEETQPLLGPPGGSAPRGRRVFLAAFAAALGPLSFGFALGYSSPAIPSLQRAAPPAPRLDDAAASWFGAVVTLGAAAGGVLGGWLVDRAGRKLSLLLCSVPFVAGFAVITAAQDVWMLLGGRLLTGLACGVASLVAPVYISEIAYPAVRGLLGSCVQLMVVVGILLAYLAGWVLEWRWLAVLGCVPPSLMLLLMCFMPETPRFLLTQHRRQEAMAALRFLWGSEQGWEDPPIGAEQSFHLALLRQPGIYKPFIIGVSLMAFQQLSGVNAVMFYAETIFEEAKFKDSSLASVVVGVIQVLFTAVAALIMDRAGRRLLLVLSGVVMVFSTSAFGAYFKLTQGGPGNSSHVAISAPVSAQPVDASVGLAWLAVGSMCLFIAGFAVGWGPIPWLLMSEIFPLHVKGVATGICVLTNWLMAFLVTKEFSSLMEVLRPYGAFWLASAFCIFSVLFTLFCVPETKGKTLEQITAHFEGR
Put plainly: 2-DOG transport in HEK293 cells over-expressing GLUT8. As to conditions: pre-treated 5 minutes, 2-DOG uptake 4 min; cells lacking GLUT1; read-out: IC50 (inhibition of 2-DOG transport in HEK cells over-expressing GLUT isoforms) GLUT8. As for the experimental part: as §1, §2, §3

For assay [4], the system named is KMS11-GFP cells. Put plainly: Proliferation of KMS11-GFP myeloma cells (Cell Titre Glo). As to the method:
(§4) IC50 studies were performed using the CellTiter-Glo assay (Promega, Madison, Wis.). 20,000 cells in 100 ul complete RPMI 1640 medium were plated per well in 96-well plates, with a concentration range of individual compounds. After 72 h incubation, 100 uL Glo reagent were added to each well and luminescence was measured using a Biotek Synergy 4 multimode plate reader. Cell number was assessed by trypan blue standing and an automatic cell counter (Biorad). For cell viability assays 0.125×10^6 cells/mL were treated with the indicated concentration of drug, washed with 1×PBS and evaluated for viability by AnnexinV/DAPI staining and flow cytometry. Data analysis was per-formed with the FCS express version 3 (De Novo software, Los Angeles).
(§5) Compound were selected as a lead based on its low IC50, selectivity for inhibition of glucose transport through GLUT4, and inhibition of the KMS11-GFP cell line proliferation in contrast to the GLUT1 expressing isogenic line. Compounds were assessed in a high-throughput proliferation-based assay using an isogenic MM (KMS11) cell line pair overexpressing GLUT1 or GFP (as a control) (model of screen is depicted in FIG. 2A). […] Isogenic KMS11-GFP/GLUT1 overexpressing myeloma cell lines were treated with a dose range of the indicated test compound for 72 hours followed by evaluation of viable cell number by Cell Titre Glo assay

The test system of assay [5] is KMS11-GLUT1 cells. Briefly: Proliferation of KMS11-GLUT1 myeloma cells (Cell Titre Glo). Conditions: inhibition of proliferation, 72 hours. As for the experimental part: as §4, §5

Consider `Oc1cccc(CNCc2ccncc2)c1` [Compound 3, reference compound], for which the IC50 was 18.9 µM in assay [1], above 100 µM in assay [2] and above 100 µM in assay [3].

As to `COc1ccc(C(=O)N(Cc2ccncc2)Cc2cccc(OCc3cccc(OC)c3)c2)cc1` [Compound 17, 4-Methoxy-N-(3-((3-methoxybenzyl)oxy)benzyl)-N-(pyridin-4-ylmethyl)benzamide], the EC50 in assay [4] (inhibition of proliferation, 72 hours, Cell Titre Glo) stood at 16.9 µM; in assay [5], 28.5 µM. In addition, in assay [4] (isogenic cell line pair), the “impact on proliferation in KMS11-GFP cells compared with KMS11-GLUT1 cells” value is “greater impact on proliferation in KMS11-GFP cells”. Further, the figures for the IC50 in assay [1], in assay [2] and in assay [3] were 10.8 µM, above 100 µM and above 100 µM, respectively.

Broadly, the IC50 is the concentration that inhibits the measured activity by half. For orientation: EC50 means the concentration at which the effect is half-maximal.

The values above are taken from US20190321345A1, “GLUT4 Selective Inhibitors for Cancer Therapy” (Emory University, priority 2016, published 2019).
